Patent publication US10906880B2, “Kind of isothiazole oxime ether-containing strobilurin derivatives and its preparation methods and application” (priority 2016, dated 2021)
Where two headings read alike, the source gives them in different places.

Assays:
TMV [1] = assay: Anti-TMV activity on tobacco, protection mode; type: in vivo, tobacco mosaic virus; details: 100 μg/mL; for inhibition at 100 µg/mL: Tobacco mosaic virus, read-out: Anti-TMV activity inhibition, Protection effect
TMV [2] = assay: Anti-TMV activity on tobacco, induction mode (systemic acquired resistance); type: in vivo, tobacco mosaic virus; details: 100 μg/mL
Alternaria solani = assay: Fungicide activity, mycelial growth inhibition on PDA plate; type: cell-based; details: Alternaria solani, read-out: Fungicidal activity inhibition, AS
Cercospora arachidicola = assay: as above; type: cell-based; details: Mycosphaerella arachidis, read-out: Fungicidal activity inhibition, CA
Physalospora piricola = assay: as above; type: cell-based; details: read-out: Fungicidal activity inhibition, PP
Botrytis cinerea = assay: as above; type: cell-based; details: Botrytis cinerea, read-out: Fungicidal activity inhibition, BC
Sclerotinia sclerotiorum = assay: as above; type: cell-based; details: Sclerotinia sclerotiorum, read-out: Fungicidal activity inhibition, SS
Rhizoctonia cerealis = assay: as above; type: cell-based; details: Ceratobasidium cereale, read-out: Fungicidal activity inhibition, RC
Pellicularia sasakii = assay: as above; type: cell-based; details: 50 μg/mL, P. sasakii; read-out: Fungicidal activity inhibition, PS
[3] = test system: Phytophthora infestans (Mont) de Bary; assay: microbe, parasite or virus in culture; type: cell-based; details: Phytophthora infestans, read-out: Fungicidal activity inhibition, PI, 50 μg/mL, P. infestans (Mont.) de Bary
TMV [4] = assay: Anti-TMV activity on tobacco, curative mode; type: in vivo, tobacco mosaic virus; details: 100 μg/mL, tobacco; for inhibition at 100 µg/mL: Tobacco mosaic virus, read-out: Anti-TMV activity inhibition, Curative effect
TMV [5] = assay: Anti-TMV activity on tobacco, inactivation mode; type: in vivo, tobacco mosaic virus; details: Tobacco mosaic virus, 100 μg/mL, read-out: Anti-TMV activity inhibition, Inactivation effect

SMILES	inhibition at 50 µg/mL (Alternaria solani; 50 μg/mL, A. solani) [%]	inhibition at 50 µg/mL (Alternaria solani) [%]	inhibition at 50 µg/mL (Cercospora arachidicola; 50 μg/mL, C. arachidicola) [%]	inhibition at 50 µg/mL (Cercospora arachidicola) [%]	inhibition at 50 µg/mL (Physalospora piricola; 50 μg/mL, P. piricola) [%]	inhibition at 50 µg/mL (Botrytis cinerea; 50 μg/mL, B. cinerea) [%]	inhibition at 50 µg/mL (Sclerotinia sclerotiorum; 50 μg/mL, S. sclerotiorum) [%]	inhibition at 50 µg/mL (Sclerotinia sclerotiorum) [%]	inhibition at 50 µg/mL (Rhizoctonia cerealis; 50 μg/mL, R. cerealis) [%]	inhibition at 50 µg/mL (Pellicularia sasakii) [%]	inhibition at 50 µg/mL [3] [%]	inhibition at 100 µg/mL (TMV [4]) [%]	inhibition at 100 µg/mL (TMV [1]) [%]	melting point [°C]	other results
CSC(=O)c1cccc2nnsc12 [BTH, reference compound]															Anti-TMV activity inhibition, Protection effect (TMV [1]): 78.10 ± 0.54%; Anti-TMV activity inhibition, Induction effect (TMV [2]): 78.00 ± 1.34%
CO/C=C(/C(=O)OC)c1ccccc1CO/N=C(\C)c1snc(Cl)c1Cl [CL03-49]	42.9	> 30	66.7	> 30	78.3	100	80	> 40	100	64.7	> 40	> 30	35.9 ± 0.63	100 to 102	
CO/C=C(/C(=O)OC)c1ccccc1CO/N=C/c1snc(Cl)c1Cl [CL03-50]	57.1	> 30	66.7	> 30	78.3	100	53.3	> 40	100	64.7	> 40	> 30	> 40	61 to 63	Anti-TMV activity inhibition, Curative effect (TMV [4]): 48.32 ± 5.88%
CO/C=C(/C(=O)OC)c1ccccc1CO/N=C(\N)c1snc(Cl)c1Cl [CL04-03]	57.1	> 30	100		87	100	100		100	58.8	> 40	> 30	35.1 ± 0.39	105 to 107	
CO/C=C(/C(=O)OC)c1ccccc1CO/N=C(\C)CC(O)c1snc(Cl)c1Cl (stereo not shown) [CL04-04-A]	85.7		75		73.9	100	90		100	52.9	> 40	19.1 ± 2.13		36 to 38	
CO/C=C(/C(=O)OC)c1ccccc1CO/N=C(\C)CC(=O)c1snc(Cl)c1Cl [CL04-04-B]	50	> 30	75		60.9	58.3	76.7	> 40	92.6	64.7	> 40	19.1 ± 2	> 40	103 to 105	inhibition at 50 µg/mL (Botrytis cinerea): > 45%; inhibition at 50 µg/mL (Rhizoctonia cerealis): > 50%
CO/C=C(/C(=O)OC)c1ccccc1CO/N=C(C)/C=C/c1snc(Cl)c1Cl [CL04-06]	57.1	> 30	50	> 30		100	100		100	70.6		22.4 ± 6.85	> 40	101 to 103	inhibition at 50 µg/mL (Physalospora piricola): 73.9%; inhibition at 100 µg/mL (TMV [5]): 22.2 ± 5.9%
CO/N=C(/C(=O)OC)c1ccccc1CO/N=C/c1snc(Cl)c1Cl [CL04-15B]	100		91.7		62.1	100	90		98.2	69.2		27 ± 4.13	14.7 ± 2.73	88 to 90	
CO/N=C(/C(=O)OC)c1ccccc1CO/N=C(\N)c1snc(Cl)c1Cl [CL04-15C]	52.9	> 30	75		71.2	100	98		89.1	76.9		1.52 ± 0.62	25.1 ± 4.33	104 to 106	inhibition at 50 µg/mL (Rhizoctonia cerealis): > 50%
